Results from publication PMC10120551, “Novel Glu-based pyrazolo[3,4-d]pyrimidine analogues: design, synthesis and biological evaluation as DHFR and TS dual inhibitors” (Journal of Enzyme Inhibition and Medicinal Chemistry, 2023).

Columns and labels:
[1] = system: K-562; assay: cells; details: Homo sapiens
[2] = system: LOX IMVI; assay: cells; details: Homo sapiens
[3] = system: SN12C; assay: cells; details: Homo sapiens
[4] = system: SW-620; assay: cells; details: Homo sapiens
[5] = system: BT-549; assay: cells; details: Homo sapiens
[6] = system: U251; assay: cells; details: Homo sapiens
[7] = system: TK-10; assay: cells; details: Homo sapiens
[8] = system: SF-268; assay: cells; details: Homo sapiens
[9] = system: A549/ATCC; assay: cells; details: Homo sapiens
[10] = system: UACC-62; details: UACC-62, Melanoma; five-dose 0.01–100 µM
[11] = system: ACHN; assay: cells; details: Homo sapiens
[12] = system: SNB-75; details: SNB-75, CNS cancer; five-dose 0.01–100 µM
[13] = system: IGROV1; details: IGROV1, Ovarian cancer; five-dose 0.01–100 µM
[14] = system: NCI-H522; assay: cells; details: Homo sapiens
[15] = system: A498; details: A498, Renal cancer; five-dose 0.01–100 µM
[16] = system: T-47D; assay: cells; details: Homo sapiens, T47D
[17] = system: HCT-116; assay: cells; details: Homo sapiens
[18] = system: MALME-3M; assay: cells; details: Homo sapiens
[19] = system: UO-31; details: UO-31, Renal cancer; five-dose 0.01–100 µM
[20] = system: MDA-MB-468; details: MDA-MB-468, Breast cancer; five-dose 0.01–100 µM
[21] = system: UACC-62; assay: cells; details: Homo sapiens
[22] = system: SR; details: Leukaemia, five-dose 0.01–100 µM
[23] = system: HSF (Normal human skin fibroblast) cells; assay: MTT cytotoxicity assay; type: cell-based; details: HSF normal fibroblasts, 48 h, mean ± SD from triplicates
Method: The results hinted that 6i elicited stronger cytotoxicity and higher selectivity for cancer than normal cells.
The MTT assay was carried out according to the procedure cited earlier. Briefly, in a 96-well plate, either cancer or normal cells were seeded (10^6 cells/cm^2; 100 µL/well) and incubated for 12 h at 37 °C and CO2 (5%), then serial dilutions of compound 6i were added and incubated for 48 h using DMSO control (0.5% V/V). MTT (3-(4,5-dimethylthiazoyl)-2,5-diphenyl-tetrazolium bromide; Cat. No. M-5655) 5 mg/mL was then added. After 4 h incubation, the formed MTT formazan crystals were solubilised by 10% Triton X-100 plus 0.1 N HCl in anhydrous isopropanol. The absorbance was read using a Bioline plate reader at λ570–630 nm[25–29]. The selectivity of 6i towards HSF cells was also determined as follows[30]^,[31]: SI=IC50HSF cells/IC50of cancer cells

[24] = system: MCF-7 cells; assay: Cell cycle analysis (PI, flow cytometry); type: cell-based, human; details: MCF-7, 10 µM, 48 h; DMSO control 24.95%
Method: Figure 5. Flow cytometric analyses: cell cycle distribution analysis using PI staining method in which MCF-7 cells were treated by 6i (10 µM) and DMSO (negative control; NC) for 48 h; (A) 6i, (B) DMSO, (C) cells percentage in different phases (G0-G1, S, G2/M); apoptotic induction using annexin-V-FITC/PI staining method in which cancer cells were treated by 6i (10 µM) and DMSO (negative control; NC) for 24 h; (D) 6i, (E) DMSO, (F) histogram for induction of apoptosis.
The cell cycle assay was carried out according to the previously reported[36]^,[37]. Briefly, in a six-well plate, 2 ml of MCF-7 cells were seeded per well and incubated overnight at 37 °C and CO2 (5%). After 12 h incubation with serum-free medium, they were treated with 10 μM of 6i, incubated for 48 h, then washed twice with 1× PBS, trypsinised and centrifuged for 5 min (500 xg) at 4 °C. And then the cell pellet, in ice-cold 1× PBS, was fixed with absolute ethanol at −20 °C for 2 h, washed with 1× PBS ice-cold solution and finally stained with propidium iodide (PI)/RNase (Abcam, ab139418) for 0.5 h at 25 °C in the dark. flow cytometry determined the DNA content in cell phases using BD FACS Calibur[36]^,[37].

[25] = system: MALME-3M; details: Melanoma, five-dose 0.01–100 µM
[26] = system: HT29; assay: cells; details: Homo sapiens
[27] = system: RPMI-8226; details: RPMI-8226, Leukaemia; five-dose 0.01–100 µM
[28] = system: OVCAR-3; assay: cells; details: Homo sapiens

In the case of `CCOC(=O)CC[C@H](NC(=O)c1ccc(NC(=O)Cn2cnc3c(c(C)nn3-c3ccc(Br)cc3)c2=O)cc1)C(=O)OCC` [Compound 6i], the GI50 ([1]; K562) is reported as greater than 100 µM, the CC50 ([1]; K562, read-out: LC50) is reported as greater than 100 µM and the GI50 [2] is reported as 5.3 µM. The CC50 ([2]; read-out: LC50) was 58.4 µM, the GI50 [3] was 29.2 µM and the CC50 ([3]; read-out: LC50) was greater than 100 µM. The GI50 ([4]; SW-620) was 8.98 µM, the CC50 ([4]; SW-620, read-out: LC50) was greater than 100 µM and the GI50 ([5]; BT-549) was 4.54 µM. The CC50 ([5]; BT-549, read-out: LC50) was greater than 100 µM, the GI50 ([6]; U-251) was 13.2 µM and the CC50 ([6]; U-251, read-out: LC50) was greater than 100 µM. It also gave a GI50 ([7]; TK-10) of 31.3 µM, a CC50 ([7]; TK-10, read-out: LC50) greater than 100 µM and a GI50 ([8]; SF-268) of 7.01 µM. It also gave a CC50 ([8]; SF-268, read-out: LC50) greater than 100 µM, a GI50 ([9]; A549) of 9.81 µM and a CC50 ([9]; A549, read-out: LC50) greater than 100 µM. It also gave a TGI [10] of 32.1 µM, a GI50 [11] of 15.1 µM and a CC50 ([11]; read-out: LC50) of 78.3 µM. It also gave a TGI [12] of 40.9 µM, a TGI [13] of 74.2 µM and a GI50 ([14]; NCI-H522) of 17.1 µM. It also gave a CC50 ([14]; NCI-H522, read-out: LC50) of 85 µM, a TGI [15] of 48.1 µM and a GI50 [16] of 45.6 µM. It also gave a CC50 ([16]; read-out: LC50) greater than 100 µM, a GI50 ([17]; HCT-116) of 9.85 µM and a CC50 ([17]; HCT-116, read-out: LC50) greater than 100 µM. For the same compound, the GI50 [18] was 15 µM, the CC50 ([18]; read-out: LC50) was 59.4 µM and the TGI [19] was 55.9 µM. The TGI [20] was 51.3 µM, the GI50 ([21]; UACC-62) was 13.3 µM and the CC50 ([21]; UACC-62, read-out: LC50) was 77.8 µM. For the same compound, the TGI [22] was greater than 100 µM, the IC50 [23] was 48.5 ± 2.43 µM and the “percentage of S-phase cells” value [24] was 36.29%. For the same compound, the TGI [25] was 29.9 µM, the GI50 ([26]; HT-29) was 18.4 µM and the CC50 ([26]; HT-29, read-out: LC50) was greater than 100 µM. For the same compound, the TGI [27] was greater than 100 µM, the GI50 ([28]; OVCAR-3) was 11.7 µM and the CC50 ([28]; OVCAR-3, read-out: LC50) was greater than 100 µM.
